What was measured:
[1] = biological target: Casein kinase I isoform gamma-3 (Homo sapiens, UniProt Q9Y6M4); experiment: CSNK1G3-Inhibitory Activity Assay
Procedure: For the assay 50 nl of a 100 fold concentrated solution of the test compound in DMSO was pipetted into a white 1536-well microtiter plate (Greiner Bio-One, Frickenhausen, Germany), 2 μL of a solution of CSNK1G3 in aqueous assay buffer [50 mM HEPES pH 7.5, 10% (v/v) glycerol, 10 mM MgCl2, 50 mM NaCl, 1 mM dithiothreitol, 0.01% (w/v) bovine serum albumin, 0.01% (v/v) Triton X-100] were added and the mixture was incubated for 15 min at 22° C. to allow pre-binding of the test compounds to the enzyme before the start of the kinase reaction. Then the kinase reaction was started by the addition of 3 μL of a solution of ATP ([…]) and peptide substrate (50 μM=>final conc. in the 5 μL assay volume is 30 μM) in assay buffer and the resulting mixture was incubated for a reaction time of 30 min at 22° C. The concentration of CSNK1G3 was adjusted depending of the activity of the enzyme lot and was chosen appropriate to have the assay in the linear range, a typical concentration is about 0.06 ng/μL. […] Subsequently 2.5 μL of the “kinase detection reagent” (1.2 fold more concentrated than recommended by the producer) were added, the resulting mixture was incubated at 22° C. for 1 h and then the luminescence measured with a suitable measurement instrument (e.g. Viewlux™ from Perkin-Elmer). […]

[2] = biological target: Casein kinase I isoform delta (Homo sapiens, UniProt P48730); experiment: CSNK1D-Inhibitory Activity Assay
Casein kinase I isoform delta, sequence (P48730 whole entry, canonical isoform): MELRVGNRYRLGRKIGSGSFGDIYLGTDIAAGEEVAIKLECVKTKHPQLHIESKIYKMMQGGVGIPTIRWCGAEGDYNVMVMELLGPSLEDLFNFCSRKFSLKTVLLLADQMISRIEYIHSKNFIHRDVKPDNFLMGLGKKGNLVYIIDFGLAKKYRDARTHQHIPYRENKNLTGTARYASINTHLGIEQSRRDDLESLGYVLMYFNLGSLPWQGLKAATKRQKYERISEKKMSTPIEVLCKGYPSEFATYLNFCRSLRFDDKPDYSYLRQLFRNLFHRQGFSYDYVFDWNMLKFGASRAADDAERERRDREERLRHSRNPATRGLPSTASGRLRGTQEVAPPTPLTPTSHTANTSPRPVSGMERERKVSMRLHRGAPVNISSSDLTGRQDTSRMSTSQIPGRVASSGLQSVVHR
Procedure: For the assay 50 nl of a 100-fold concentrated solution of the test compound in DMSO was pipetted into a white 1536-well microtiter plate (Greiner Bio-One, Frickenhausen, Germany), 2 μL of a solution of CSNK1D in aqueous assay buffer [50 mM HEPES pH 7.5, 10% (v/v) glycerol, 10 mM MgCl2, 50 mM NaCl, 1 mM dithiothreitol, 0.01% (w/v) bovine serum albumin, 0.01% (v/v) Triton X-100] were added and the mixture was incubated for 15 min at 22° C. to allow pre-binding of the test compounds to the enzyme before the start of the kinase reaction. Then the kinase reaction was started by the addition of 3 μL of a solution of ATP (1.67 μM=>final conc. in the 5 μL assay volume is 1 μM) and peptide substrate (50 μM=>final conc. in the 5 μL assay volume is 30 μM) in assay buffer and the resulting mixture was incubated for a reaction time of 30 min at 22° C. The concentration of CSNK1D was adjusted depending of the activity of the enzyme lot and was chosen appropriate to have the assay in the linear range, a typical concentration is about 0.5 ng/μL. […] Subsequently 2.5 μL of the “kinase detection reagent” (1.2 fold more concentrated than recommended by the producer) were added, the resulting mixture was incubated at 22° C. for 1 h and then the luminescence measured with a suitable measurement instrument (e.g. Viewlux™ from Perkin-Elmer). […]

[3] = biological target: T1, Casein kinase I isoform alpha (Homo sapiens, UniProt P48729); experiment: CSNK1A1-Inhibitory Activity Assay (Low ATP)
T1 sequence (P48729 whole entry, canonical isoform): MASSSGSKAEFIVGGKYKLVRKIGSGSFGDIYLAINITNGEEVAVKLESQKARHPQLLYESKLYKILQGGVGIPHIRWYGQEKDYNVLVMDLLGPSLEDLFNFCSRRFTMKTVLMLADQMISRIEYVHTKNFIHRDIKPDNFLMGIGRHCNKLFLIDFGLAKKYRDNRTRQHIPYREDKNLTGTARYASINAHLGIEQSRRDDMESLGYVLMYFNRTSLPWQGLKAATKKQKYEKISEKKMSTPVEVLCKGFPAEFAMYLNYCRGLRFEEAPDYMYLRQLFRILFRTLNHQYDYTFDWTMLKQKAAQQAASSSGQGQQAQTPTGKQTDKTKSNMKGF
Procedure: For the assay 50 nl of a 100-fold concentrated solution of the test compound in DMSO was pipetted into a white 1536-well microtiter plate (Greiner Bio-One, Frickenhausen, Germany), 2 μL of a solution of CSNK1A1 in aqueous assay buffer [50 mM HEPES pH 7.5, 10% (v/v) glycerol, 10 mM MgCl2, 50 mM NaCl, 1 mM dithiothreitol, 0.01% (w/v) bovine serum albumin, 0.01% (v/v) Triton X-100] were added and the mixture was incubated for 15 min at 22° C. to allow pre-binding of the test compounds to the enzyme before the start of the kinase reaction. Then the kinase reaction was started by the addition of 3 μL of a solution of ATP (1.67 μM=>final conc. in the 5 μL assay volume is 1 μM) and peptide substrate (50 μM=>final conc. in the 5 μL assay volume is 30 μM) in assay buffer and the resulting mixture was incubated for a reaction time of 30 min at 22° C. The concentration of CSNK1A1 was adjusted depending of the activity of the enzyme lot and was chosen appropriate to have the assay in the linear range, a typical concentrations are about 0.0375 ng/μL. […] Subsequently 2.5 μL of the “kinase detection reagent” (1.2 fold more concentrated than recommended by the producer) were added, the resulting mixture was incubated at 22° C. for 1 h and then the luminescence measured with a suitable measurement instrument (e.g. Viewlux™ from Perkin-Elmer). […]

[4] = biological target: T1, Casein kinase I isoform alpha; experiment: CSNK1A1-Inhibitory Activity Assay (High ATP)
Procedure: For the assay 50 nl of a 100 fold concentrated solution of the test compound in DMSO was pipetted into a white low volume 384-well microtiter plate (Greiner Bio-One, Frickenhausen, Germany), 2 μL of a solution of CSNK1A1 in aqueous assay buffer [50 mM HEPES pH 7.5, 10% (v/v) glycerol, 10 mM MgCl2, 50 mM NaCl, 1 mM dithiothreitol, 0.01% (w/v) bovine serum albumin, 0.01% (v/v) Triton X-100] were added and the mixture was incubated for 15 min at 22° C. to allow pre-binding of the test compounds to the enzyme before the start of the kinase reaction. Then the kinase reaction was started by the addition of 3 μL of a solution of ATP (1.67 mM=>final conc. in the 5 μL assay volume is 1 mM) and peptide substrate (167 μM=>final conc. in the 5 μL assay volume is 100 μM) in assay buffer and the resulting mixture was incubated for a reaction time of 30 min at 22° C. The concentration of CSNK1A1 was adjusted depending of the activity of the enzyme lot and was chosen appropriate to have the assay in the linear range, a typical concentration is about 0.4 ng/μL. […] Subsequently 2.5 μL of the “kinase detection reagent” (1.2 fold more concentrated than recommended by the producer) were added, the resulting mixture was incubated at 22° C. for 1 h and then the luminescence measured with a suitable measurement instrument (e.g. Viewlux™ from Perkin-Elmer). […]

Casein kinase I isoform gamma-3, sequence (Q9Y6M4 whole entry, canonical isoform): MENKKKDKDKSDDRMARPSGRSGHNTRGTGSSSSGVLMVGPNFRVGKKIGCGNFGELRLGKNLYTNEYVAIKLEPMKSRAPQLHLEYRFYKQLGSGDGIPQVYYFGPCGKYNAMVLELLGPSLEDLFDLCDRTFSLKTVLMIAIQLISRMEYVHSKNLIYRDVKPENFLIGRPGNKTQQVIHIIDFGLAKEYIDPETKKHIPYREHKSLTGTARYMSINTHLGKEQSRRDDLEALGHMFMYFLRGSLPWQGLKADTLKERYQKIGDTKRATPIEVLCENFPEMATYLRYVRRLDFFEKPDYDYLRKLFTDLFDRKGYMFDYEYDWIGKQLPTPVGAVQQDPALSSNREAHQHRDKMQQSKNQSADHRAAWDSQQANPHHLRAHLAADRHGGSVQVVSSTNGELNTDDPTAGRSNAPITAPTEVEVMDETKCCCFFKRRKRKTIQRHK

## O=C(Cc1cnco1)Nc1cc(-c2[nH]c3cccnc3c2-c2ccccn2)ccn1 [US20250188075, Example 4]
[1]
  IC50: 50.3 nM
[2]
  IC50: 5.22 nM
[3]
  IC50: 1.82 nM
[4]
  IC50: 47 nM
